Where two headings read alike, the source gives them in different places.
Tests used:
[1] = tested on: human cell line HepG2 strongly expressing GPC3; assay: Antitumor effect in mouse graft models using HepG2; format: in vivo; details: HepG2 graft mice; GC33 or ag-GC33 5 mg/kg tail vein once a week x3; sorafenib 5 mg/kg oral five times a week for 3 weeks; from day 18; FIG. 1
Experimental: GC33 or ag-GC33 was administered at 5 mg/kg to the tail vein of each mouse once a week a total of three times from 18 days after HepG2 transplantation. Sorafenib was orally administered at 5 mg/kg to each mouse five times a week for 3 weeks from 18 days after HepG2 transplantation.

sGPC3-C = sGPC3-C in mouse plasma by ELISA (GT96/M3C11) at completion of antitumor evaluation; format: in vivo; details: HepG2 graft mice, FIG. 3
Experimental: (§1) At the completion of the antitumor effect evaluation, plasma was collected from each mouse. Fragments of a soluble form of GPC3 were assayed by two types of ELISA methods differing in the combination of anti-GPC3 antibodies. In order to detect the fragments of a soluble form of GPC3 in ELISA, mouse monoclonal antibodies binding to the N-terminal subunit of human GPC3 were prepared as described in WO2004/022739. Hereinafter, the obtained antibodies are referred to as GT30 and GT607 for the sake of convenience. Also, mouse monoclonal antibodies binding to the C-terminal subunit of human GPC3 were prepared as described in WO2004/022739. Hereinafter, the obtained antibodies are referred to as GT96 and M3C11 for the sake of convenience. […]
(§2) Specifically, the detection of sGPC3-N and the detection of sGPC3-C by ELISA were performed as follows: first, the GT30 antibody diluted to 1 μg/mL with a carbonatebicarbonate buffer (manufactured by Sigma-Aldrich Co., LLC) or the M3C11 antibody adjusted to 128 μg/mL in the same way thereas was added at 50 μL/well to a 96-well microplate (manufactured by Meso Scale Discovery (MSD), Multi-array 96-well plate) and stirred at room temperature for 1 hour. […] After washing five times with a washing solution, a substrate solution (manufactured by Meso Scale Discovery (MSD), MSD Read Buffer T (4×) with Surfactant) was added thereto at 100 μL/well. […]

sGPC3-N = sGPC3-N in mouse plasma by ELISA (GT30/GT607) at completion of antitumor evaluation; format: in vivo; details: HepG2 graft mice, FIG. 2
Experimental: as §1, §2

human GPC3 = human GPC3 (Homo sapiens, UniProt P51654); details: cited from earlier work
[2] = tested on: advanced hepatocellular carcinoma; details: Asian trial; cited from earlier work
[3] = tested on: advanced hepatocellular carcinoma; details: cited from earlier work
[4] = tested on: advanced hepatocellular carcinoma; details: cited from earlier work; remark: listed apart in the source

Row | Molecule | tumor enlargement inhibitory effect (tumor volume) [1] | sGPC3-C level in plasma (sGPC3-C) | sGPC3-N level in plasma (sGPC3-N) | binding affinity to human GPC3 (human GPC3) | survival duration [2] | time to tumor radiological progression [2] | time to tumor radiological progression ([3]; European and American trial) | survival duration ([3]; SHARP trial) | HR of survival duration ([4]; both trials, versus placebo) | objective response rate ([4]; in vivo) | time to symptomatic progression ([4]; in vivo)
1 | GC33: recombinant humanized IgG1 monoclonal antibody binding to human GPC3 with high affinity (WO2006/006693) | tumor enlargement was inhibited as compared with the control group | higher in the GC33 administration group compared with the control group, the ag-GC33 group, and the sorafenib group | a lower level of sGPC3-N was found as compared with the control group | high affinity |  |  |  |  |  |  | 
2 | CNC(=O)c1cc(Oc2ccc(NC(=O)Nc3ccc(Cl)c(C(F)(F)F)c3)cc2)ccn1 [sorafenib] | the tumor enlargement inhibitory effect was weaker than that of GC33 |  | equivalent to the GC33 administration group |  | 6.5 months | 2.8 months | 5.5 months | 10.7 months | 0.68 | low | no prolongation
